Results taken from patent US7999001B2 (priority 2007, dated 2011).
“Also recorded” adds a separate entry of the source.

What was measured:
[1] = system: EBOV-GFP (recombinant Ebola Zaire virus expressing green fluorescence protein); test: microbe, parasite or virus in culture; assay type: cell-based; settings: Zaire ebolavirus, Vero C1008, 48 h, read-out: EBOV % Inhibition (20 μM)
EBOV-GFP = test: microbe, parasite or virus in culture; assay type: cell-based, Ebola Zaire virus; settings: for IC50: Zaire ebolavirus, Vero C1008, read-out: IC50 (read from graphs of % of control infection)
[2] = system: Rift Valley Fever Virus (ZH501 strain); assay type: cell-based
[3] = system: influenza virus (H1N1 A/Texas strain); assay type: cell-based
[4] = system: Lassa virus (Josiah strain); assay type: cell-based
[5] = system: MPXV-GFP (recombinant monkeypox virus expressing GFP, Zaire strain); test: microbe, parasite or virus in culture; assay type: cell-based; settings: Vero C1008, in Primates, 48 h, read-out: Monkey Pox % Inhibition (20 μM)
[6] = system: cowpox virus (CPXV, egfpCPV virus); set-up: species or system mice; settings: mouse, in vivo
GFP-EBOV = assay type: cell-based, Ebola Zaire virus

| Structure (SMILES) | inhibition at 20 µM [1] | dose dependent antiviral activity toward EBOV-GFP (EBOV-GFP) | IC50 (EBOV-GFP) | antiviral activity toward RVFV [2] | antiviral activity toward influenza virus [3] | inhibition of influenza virus replication [3] | antiviral activity toward LV (Lassa virus) [4] | inhibition at 20 µM [5] | IC50 toward EBOV (in words) (EBOV-GFP) | inhibition of Lassa virus replication [4] | mean time to death [6] | effect of 24 hours pre-treatment of cells versus treatment during and after infection (GFP-EBOV) |
| --- | --- | --- | --- | --- | --- | --- | --- | --- | --- | --- | --- | --- |
| N=C(N)c1ccc2oc(/C=C/c3cc4ccc(C(=N)N)cc4o3)cc2c1 [NSC 294202, 2-[(E)-2-(5-carbamimidoylbenzofuran-2-yl)ethenyl]benzofuran-6-carboximidamide] | 71.2% | dose dependent antiviral activity | ~6 µM | showed antiviral activity | showed antiviral activity | more than one log; also recorded: inhibit the replication | showed antiviral activity | – | – | – | – | – |
| Cc1cc(NCCCN(C)C)c2ccc3c(ccc4c(NCCCN(C)C)cc(C)nc43)c2n1 [NSC 306365, N,N′-bis(3-dimethylaminopropyl)-3,9-dimethylquinolino[8,7-h]quinoline-1,7-diamine] | 99% | dose dependent antiviral activity | – | showed antiviral activity; also recorded: dose-dependent inhibition; also recorded: dose dependent antiviral activity | showed antiviral activity | half log; also recorded: inhibit the replication | showed antiviral activity; also recorded: dose dependent inhibition | 99% | submicromolar | one log; also recorded: inhibit the replication | increase in the mean time to death; also recorded: prolongs the mean time to death | – |
| N=C(N)c1ccc2oc(C=Cc3nc4cc(C(=N)N)ccc4[nH]3)cc2c1 [NSC 369723, 2-(2-(5-(amino(imino)methyl)-1-benzofuran-2-yl)vinyl)-1H-benzimidazole-5-carboximidamide] | 94% | dose dependent antiviral activity | ~4 µM | not | not | – | not | – | – | – | – | more effective than treatment during and after infection |
